# Results as given in patent publication US20230086702A1, “SUBSTITUTED 2-AMINO-PYRAZOLYL-[1,2,4]TRIAZOLO[1,5A]PYRIDINE DERIVATIVES AND USE THEREOF” (The Johns Hopkins University, priority 2019, published 2023).
# How the values were obtained:
# DLK = target: T1, DLK (Homo sapiens, UniProt Q12852); assay: DLK biochemical assay (TR-FRET, MKK7 phosphorylation)
# T1 construct: 10 nM DLK, catalytic domain, Carna Biosiences; purchased Carna Biosciences ('Carna Biosiences' [sic])
# T1 sequence (Q12852 125-366 limits assumed): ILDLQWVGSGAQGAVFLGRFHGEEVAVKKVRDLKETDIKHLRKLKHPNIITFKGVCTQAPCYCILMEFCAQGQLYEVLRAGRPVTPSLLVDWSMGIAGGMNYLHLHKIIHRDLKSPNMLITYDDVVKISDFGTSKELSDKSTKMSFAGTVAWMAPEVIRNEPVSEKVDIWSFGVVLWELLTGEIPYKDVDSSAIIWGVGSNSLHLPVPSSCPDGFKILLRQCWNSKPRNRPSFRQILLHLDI
# Method: (§1) DLK assay is a biochemical assay format designed to screen for inhibitors of DLK. Enzymatic activity of DLK is measured by monitoring phosphorylation of the physiological substrate MKK7 (MAP2K7, Dual specificity mitogen-activated protein kinase kinase 7). Phosphorylation is detected by a TR-FRET system whereby His-tagged MKK7 is labeled by a XL665-labeled anti-His antibody (FRET acceptor, emission 665 nm). DLK phosphorylates MKK7 at T275/S277, which is detected by an Eu-labeled anti-phospho-MKK7 (T275/S277) antibody (FRET donor, excitation 340 nm). Phosphorylation of MKK7 results in an increased TR-FRET signal (Ratio XL665-channel/Eu-channel) and inhibition of enzymatic activity of DLK decreases the TR-FRET signal.
# Assay Protocol for 1536 MTP format: test compounds are predispensed (60 nl) in test plates; +3 μl DLK solution (10 nM DLK, catalytic domain, Carna Biosiences, 0.6 mM DTT in assay buffer); +2 μl substrate solution (15 nM MKK7, LDB; 60 μM ATP; 0.4 mM DTT in assay buffer); 90 min incubation at RT; +2 μl detection mix (5 nM XL665-labeled anti-His antibody, Cisbio; 0.1 nM Eu-labeled anti-phospho-MKK7 (T275/S277), Cisbio/Millipore in detection buffer); 16 h incubation at 37° C.; endpoint measurement BMG (HTRF).
# (§2) Assay Protocol for 384 low volume MTP format: 1 μl of test compounds is pipetted into test plate; +5 μl DLK solution (10 nM DLK, catalytic domain, Carna Biosiences in assay buffer); +5 μl substrate solution (15 nM MKK7, LDB; 60 μM ATP, in assay buffer); 90 min incubation at RT; +9 μl detection mix (20 nM XL665-labeled anti-His antibody, Cisbio; 0.4 nM Eu-labeled anti-phospho-MKK7 (T275/S277), Cisbio/Millipore in detection buffer); 16 h incubation at 4° C.; endpoint measurement BMG (HTRF).
# (§3) All indicated concentrations final concentrations.
# (§4) Assay buffer (384 format): 50 mM Hepes pH 7.5, 10 mM MgCl2, 1 mM EGTA, 1 mM DTT, 0.01% Triton X-100, 0.01% BSA, 1:500 Smart Block.
# (§5) Detection buffer: 25 mM Tris/HCl pH 7.5, 100 mM EDTA, 100 mM NaCl, 200 mM KF, 0.01% Tween 20, 1:500 Smart Block.
# LZK = target: T2, LZK (Homo sapiens, UniProt O43283); assay: LZK biochemical assay (TR-FRET, MKK7 phosphorylation)
# T2 construct: 10 nM LZK, catalytic domain, Carna Biosiences in assay buffer; purchased Carna Biosciences ('Carna Biosiences' [sic])
# T2 sequence (O43283 168-409 limits assumed): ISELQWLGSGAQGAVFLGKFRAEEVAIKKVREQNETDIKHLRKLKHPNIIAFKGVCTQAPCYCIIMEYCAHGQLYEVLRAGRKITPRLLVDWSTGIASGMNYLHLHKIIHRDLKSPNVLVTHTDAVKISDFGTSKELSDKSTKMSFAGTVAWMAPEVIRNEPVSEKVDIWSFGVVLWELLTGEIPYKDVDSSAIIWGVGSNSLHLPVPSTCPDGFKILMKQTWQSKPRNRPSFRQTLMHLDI
# Method: as §1, with “LZK” for “DLK”, “LZK.” for “DLK.”, “T275/S277” for “T275/S277,”
# as §2, with “compound” for “compounds”, “LZK” for “DLK”, “LZK,” for “DLK,”, “15” for “60”, “+5” for “+9”, “32°” for “4°”
# as §3, §4, §5
Compound,IC50 (DLK) [nM],IC50 (LZK) [nM]
"CC[C@@H](c1ccc(OC(F)(F)F)nc1)n1cc(-c2cc(-c3cnn(CC(F)(F)F)c3)n3nc(N)nc3c2)cn1 (single isomer, unassigned) [II-116, 5-[1-(2,2,2-Trifluoroethyl)-1H-pyrazol-4-yl]-7-(1-{1-[6-(trifluoromethoxy)pyridin-3-yl]propyl}-1H-pyrazol-4-yl)[1,2,4]triazolo[1,5-a]pyridin-2-amine]",9.7,22
"Nc1nc2c(-c3ccn(CC(F)F)c(=O)c3)cc(-c3cnn(C(c4ccc(C(F)(F)F)nc4)C4CCOCC4)c3)cn2n1 (single isomer, unassigned) [II-174, 4-[2-Amino-6-(1-{tetrahydro-2H-pyran-4-yl[6-(trifluoromethyl)pyridin-3-yl]methyl}-1H-pyrazol-4-yl)[1,2,4]triazolo[1,5-a]pyridin-8-yl]-1-(2,2-difluoroethyl)pyridin-2(1H)-one]",1,4.3
"CC(C)C(c1ccc(C(F)(F)F)nc1)n1cc(-c2cc(-c3ccc(C4(O)CCC4)nc3)n3nc(N)nc3c2)cn1 (racemic) [II-80, 1-{5-[2-Amino-7-(1-{2-methyl-1-[6-(trifluoromethyl)pyridin-3-yl]propyl}-1H-pyrazol-4-yl)[1,2,4]triazolo[1,5-a]pyridin-5-yl]pyridin-2-yl}cyclobutan-1-ol]",21,17
"Nc1nc2c(-c3ccc(=O)n(CC(F)(F)F)c3)cc(-c3cnn(C(c4ccc(C(F)(F)F)nc4)C4CCOCC4)c3)cn2n1 (single isomer, unassigned) [II-161, 5-[2-Amino-6-(1-{tetrahydro-2H-pyran-4-yl[6-(trifluoromethyl)pyridin-3-yl]methyl}-1H-pyrazol-4-yl)[1,2,4]triazolo[1,5-a]pyridin-8-yl]-1-(2,2,2-trifluoroethyl)pyridin-2(1H)-one]",8.5,12
"CCS(=O)(=O)c1cccc(-c2cc(-c3cnn(C(c4ccc(C(F)(F)F)nc4)C4CCOCC4)c3)cn3nc(N)nc23)c1 (single isomer, unassigned) [II-18, 8-[3-(Ethylsulfonyl)phenyl]-6-(1-{tetrahydro-2H-pyran-4-yl[6-(trifluoromethyl)pyridin-3-yl]methyl}-1H-pyrazol-4-yl)[1,2,4]triazolo[1,5-a]pyridin-2-amine]",0.3,1.5
"CC(C)C(c1ccc(C(F)(F)F)nc1)n1cc(-c2cc(-c3ccc(C4CC(F)(F)C4)nc3)n3nc(N)nc3c2)cn1 (single isomer, unassigned) [II-74, 5-[6-(3,3-Difluorocyclobutyl)pyridin-3-yl]-7-(1-{2-methyl-1-[6-(trifluoromethyl)pyridin-3-yl]propyl}-1H-pyrazol-4-yl)[1,2,4]triazolo[1,5-a]pyridin-2-amine]",510,170
"CC(C)(O)c1cccc(-c2cc(-c3cnn(C(c4ccc(C(F)(F)F)nc4)C4CCOCC4)c3)cn3nc(N)nc23)c1 (single isomer, unassigned) [II-11, 2-{3-[2-Amino-6-(1-{tetrahydro-2H-pyran-4-yl[6-(trifluoromethyl)pyridin-3-yl]methyl}-1H-pyrazol-4-yl)[1,2,4]triazolo[1,5-a]pyridin-8-yl]phenyl}propan-2-ol]",1.4,3
"Nc1nc2cc(-c3cnn(C(c4ccc(C(F)(F)F)nc4)C4CCOCC4)c3)cc(-c3cnn(CC(F)(F)F)c3)n2n1 (single isomer, unassigned) [II-151, 7-(1-{Tetrahydro-2H-pyran-4-yl[6-(trifluoromethyl)pyridin-3-yl]methyl}-1H-pyrazol-4-yl)-5-[1-(2,2,2-trifluoroethyl)-1H-pyrazol-4-yl][1,2,4]triazolo[1,5-a]pyridin-2-amine]",11,11
Nc1nc2cc(-c3cnn(C(c4ccc(C(F)(F)F)nc4)C4CCOCC4)c3)cc(-c3cnn(CC(F)(F)F)c3)n2n1 (stereo not drawn) [II-149],2.9,4.7
"CC[C@@H](c1ccccc1)n1cc(-c2cc(-c3cnn(C(C)C(F)(F)F)c3)c3nc(N)nn3c2)cn1 (single isomer, unassigned) [II-96]",17,60
"Nc1nc2c(-c3cccc(S(=O)(=O)C(F)(F)F)c3)cc(-c3cnn(C(c4ccc(C(F)(F)F)nc4)C4CCOCC4)c3)cn2n1 (racemic) [II-19, 6-(1-{Tetrahydro-2H-pyran-4-yl[6-(trifluoromethyl)pyridin-3-yl]methyl}-1H-pyrazol-4-yl)-8-{3-[(trifluoromethyl)sulfonyl]phenyl}[1,2,4]triazolo[1,5-a]pyridin-2-amine]",17,45
"CC(C)C(c1ccc(C(F)(F)F)nc1)n1cc(-c2cc(-c3ccc(OC4CC4)nc3)n3nc(N)nc3c2)cn1 (racemic) [II-48, 5-[6-(Cyclopropyloxy)pyridin-3-yl]-7-(1-{2-methyl-1-[6-(trifluoromethyl)pyridin-3-yl]propyl}-1H-pyrazol-4-yl)[1,2,4]triazolo[1,5-a]pyridin-2-amine]",7.5,11
"CCC(c1ccc(C(F)(F)F)nc1)n1cc(-c2cc(-c3cnn(CC(F)F)c3)c3nc(N)nn3c2)cn1 (single isomer, unassigned) [II-110, 8-[1-(2,2-Difluoroethyl)-1H-pyrazol-4-yl]-6-(1-{1-[6-(trifluoromethyl)pyridin-3-yl]propyl}-1H-pyrazol-4-yl)[1,2,4]triazolo[1,5-a]pyridin-2-amine]",2.2,9.7
"CCS(=O)(=O)c1cccc(-c2cc(-c3cnn(C(c4ccc(C(F)(F)F)nc4)C4CCOCC4)c3)cn3nc(N)nc23)c1 (racemic) [II-16, 8-[3-(Ethylsulfonyl)phenyl]-6-(1-{tetrahydro-2H-pyran-4-yl[6-(trifluoromethyl)pyridin-3-yl]methyl}-1H-pyrazol-4-yl)[1,2,4]triazolo[1,5-a]pyridin-2-amine]",1.1,3.5
"CCC(c1ccc(C(F)(F)F)nc1)n1cc(-c2cc(-c3ccc(=O)n(CC(F)(F)F)c3)n3nc(N)nc3c2)cn1 (single isomer, unassigned) [II-189, 5-[2-Amino-7-(1-{1-[6-(trifluoromethyl)pyridin-3-yl]propyl}-1H-pyrazol-4-yl)[1,2,4]triazolo[1,5-a]pyridin-5-yl]-1-(2,2,2-trifluoroethyl)pyridin-2(1H)-one]",15,32
